{
  "source": "patent US20240158392A1",
  "about": "(Janssen Biotech, Inc., priority 2021, published 2024)",
  "data": [
    {"molecular_target": "SIK2 (Homo sapiens, UniProt Q9H0K1)", "sequence (Q9H0K1 whole entry, species assumed)": "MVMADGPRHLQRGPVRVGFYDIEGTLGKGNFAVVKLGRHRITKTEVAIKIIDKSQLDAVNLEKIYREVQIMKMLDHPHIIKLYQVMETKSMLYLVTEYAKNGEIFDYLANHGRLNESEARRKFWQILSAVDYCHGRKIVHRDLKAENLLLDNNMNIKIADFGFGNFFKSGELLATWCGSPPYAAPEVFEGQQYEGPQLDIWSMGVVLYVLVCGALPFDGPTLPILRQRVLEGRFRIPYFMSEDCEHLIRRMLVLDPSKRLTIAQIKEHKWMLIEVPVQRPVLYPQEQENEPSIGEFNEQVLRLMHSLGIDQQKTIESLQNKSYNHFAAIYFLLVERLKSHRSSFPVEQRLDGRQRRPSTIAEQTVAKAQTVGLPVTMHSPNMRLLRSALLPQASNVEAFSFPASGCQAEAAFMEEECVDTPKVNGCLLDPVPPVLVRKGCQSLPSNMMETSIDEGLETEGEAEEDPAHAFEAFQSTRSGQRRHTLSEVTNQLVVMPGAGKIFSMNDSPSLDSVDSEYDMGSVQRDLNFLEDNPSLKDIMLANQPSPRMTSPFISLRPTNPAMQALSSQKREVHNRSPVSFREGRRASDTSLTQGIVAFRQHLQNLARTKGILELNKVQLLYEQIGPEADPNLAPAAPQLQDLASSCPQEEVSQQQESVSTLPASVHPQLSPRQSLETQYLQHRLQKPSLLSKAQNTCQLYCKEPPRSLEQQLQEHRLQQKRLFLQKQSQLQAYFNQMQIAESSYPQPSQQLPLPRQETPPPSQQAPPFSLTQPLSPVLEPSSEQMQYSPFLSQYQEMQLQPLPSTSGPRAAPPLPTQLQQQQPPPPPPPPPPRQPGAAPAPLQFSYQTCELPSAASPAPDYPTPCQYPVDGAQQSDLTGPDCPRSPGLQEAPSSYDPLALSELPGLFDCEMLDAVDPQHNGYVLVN", "assay": "SIK2 Enzymatic Assay High Version 2 (High ATP)", "format": "biochemical", "settings": "not given", "outline": "(§1)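 At room temperature, enzyme (6 nM, 2× final) was preincubated with compound for 30 min, then 6 mM ATP and 400 μM HDAC5tide (both 2× final) were added for 2 h. ADP formed was measured by ADP-Glo Max (2 h reagent, 1 h detection) using luminescence.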", "units": {"IC50": "µM"}, "values": [
      {"compound": "Cc1cc(-c2cn3cc(Nc4cc(C)nc(C)n4)nc3cn2)c(O[C@H]2C[C@H]3COC[C@@H](C2)N3)cn1", "note": "[Example 350, N-(2,6-dimethylpyrimidin-4-yl)-6-[2-methyl-5-[[(1R,5S)-3-oxa-9-azabicyclo[3.3.1]nonan-7-yl]oxy]-4-pyridyl]imidazo[1,2-a]pyrazin-2-amine]", "IC50": 0.0403},
      {"compound": "Cc1cc(-c2ccn3nc(Nc4cn(C)nc4C(O)C(F)(F)F)cc3c2)c(O[C@H]2C[C@H]3COC[C@@H](C2)N3C)cn1", "note": "(stereo partly drawn) [Example 422, 2,2,2-trifluoro-1-[1-methyl-4-[[5-[2-methyl-5-[[(1S,5R,7s)-9-methyl-3-oxa-9-azabicyclo[3.3.1]nonan-7-yl]oxy]-4-pyridyl]pyrazolo[1,5-a]pyridin-2-yl]amino]pyrazol-3-yl]ethanol]", "IC50": "< 0.000847"},
      {"compound": "CC(=O)N1[C@@H]2COC[C@H]1C[C@@H](Oc1cnc(C)cc1-c1ccn3nc(NC(=O)C4CC4)cc3c1)C2", "note": "[Example 339, N-[5-[5-[[(1S,5R)-9-acetyl-3-oxa-9-azabicyclo[3.3.1]nonan-7-yl]oxy]-2-methyl-4-pyridyl]pyrazolo[1,5-a]pyridin-2-yl]cyclopropanecarboxamide]", "IC50": 0.00231},
      {"compound": "Cc1cnc(Nc2cc3cc(-c4cc(C)ncc4O[C@H]4C[C@H]5COC[C@@H](C4)N5)ccn3n2)nc1", "note": "[Example 391, 5-(5-(((1R,5S,7s)-3-oxa-9-azabicyclo[3.3.1]nonan-7-yl)oxy)-2-methylpyridin-4-yl)-N-(5-methylpyrimidin-2-yl)pyrazolo[1,5-a]pyridin-2-amine]", "IC50": "< 0.000847"},
      {"compound": "Cc1cc(-c2ccn3nc(Nc4cnc(C(=O)NCC(C)(C)O)cn4)cc3c2)c(O[C@H]2C[C@H]3COC[C@@H](C2)N3)cn1", "note": "[Example 390, N-(2-hydroxy-2-methyl-propyl)-5-[[5-[2-methyl-5-[[(1S,5R,7s)-3-oxa-9-azabicyclo[3.3.1]nonan-7-yl]oxy]-4-pyridyl]pyrazolo[1,5-a]pyridin-2-yl]amino]pyrazine-2-carboxamide]", "IC50": "> 50"},
      {"compound": "CNC(=O)c1ccnc(Nc2cc3cc(-c4cc(C)ncc4O[C@H]4C[C@H]5COC[C@@H](C4)N5C(C)=O)ccn3n2)c1", "note": "[Example 631, 2-((5-(5-(((1R,5S,7s)-9-acetyl-3-oxa-9-azabicyclo[3.3.1]nonan-7-yl)oxy)-2-methylpyridin-4-yl)pyrazolo[1,5-a]pyridin-2-yl)amino)-N-methylisonicotinamide]", "IC50": 0.0771},
      {"compound": "COCCNC(=O)c1ccc(Nc2cc3cc(-c4cc(C)ncc4O[C@H]4C[C@H]5COC[C@@H](C4)N5)ccn3n2)nc1", "note": "[Example 387, N-(2-methoxyethyl)-6-[[5-[2-methyl-5-[[(1S,5R,7s)-3-oxa-9-azabicyclo[3.3.1]nonan-7-yl]oxy]-4-pyridyl]pyrazolo[1,5-a]pyridin-2-yl]amino]pyridine-3-carboxamide]", "IC50": 0.001},
      {"compound": "Cc1cc(-c2ccn3nc(Nc4cc(C)nc(C)n4)cc3c2)c(OCC2CNS(=O)(=O)N2)cn1", "note": "(racemic) [Example 352, (rac-)-N-(2,6-dimethylpyrimidin-4-yl)-5-[5-[(1,1-dioxo-1,2,5-thiadiazolidin-3-yl)methoxy]-2-methyl-4-pyridyl]pyrazolo[1,5-a]pyridin-2-amine]", "IC50": 0.0031}
    ]},
    {"molecular_target": "SIK2 (Homo sapiens, UniProt Q9H0K1)", "assay": "SIK2 Enzymatic Assay High Version 2 (High ATP)", "format": "biochemical", "settings": "enzyme 6 nM, 6 mM ATP and 400 μM HDAC5tide (each 2× final concentration); 30 minutes pre-incubation, 2 hours; ADP-Glo Max luminescence; read-out: SIK2 high ATP IC50 (μM) (Test Example 2)", "outline": "as §1", "units": {"IC50": "µM"}, "values": [
      {"compound": "Cc1cncc(Nc2cc3cc(-c4cc(OCC(F)F)ncc4OCC(C)(C)C#N)ccn3n2)n1", "note": "[Example 696, 3-[[6-(2,2-difluoroethoxy)-4-[2-[(6-methylpyrazin-2-yl)amino]pyrazolo[1,5-a]pyridin-5-yl]-3-pyridyl]oxy]-2,2-dimethyl-propanenitrile]", "IC50": 0.0821},
      {"compound": "Cc1cc(Nc2cc3cc(-c4cc(OCC(F)(F)F)ncc4OCC(C)(C)O)ccn3n2)nc(C)n1", "note": "[Example 661, 1-[[4-[2-[(2,6-dimethylpyrimidin-4-yl)amino]pyrazolo[1,5-a]pyridin-5-yl]-6-(2,2,2-trifluoroethoxy)-3-pyridyl]oxy]-2-methyl-propan-2-ol]", "IC50": 0.0749},
      {"compound": "Cc1cc(-c2ccn3nc(Nc4cc(C)nc(C)n4)cc3c2)c(OCC2(C(N)=O)CC2)cn1", "note": "[Example 313, 1-[[4-[2-[(2,6-dimethylpyrimidin-4-yl)amino]pyrazolo[1,5-a]pyridin-5-yl]-6-methyl-3-pyridyl]oxymethyl]cyclopropanecarboxamide]", "IC50": 0.0138},
      {"compound": "Cc1cc(-c2ccn3nc(Nc4cc(C)nc(C)n4)cc3c2)c(O[C@@H]2COC(C)(C)C2)cn1", "note": "(single isomer, unassigned) [Example 533, (*S)—N-(2,6-dimethylpyrimidin-4-yl)-5-[5-(5,5-dimethyltetrahydrofuran-3-yl)oxy-2-methyl-4-pyridyl]pyrazolo[1,5-a]pyridin-2-amine]", "IC50": 0.00543},
      {"compound": "Cc1cc(-c2ccn3nc(Nc4cccnn4)cc3c2)c(O[C@H]2C[C@H](N)C2)cn1", "note": "[Example 520, 5-[5-(3-aminocyclobutoxy)-2-methyl-4-pyridyl]-N-pyridazin-3-yl-pyrazolo[1,5-a]pyridin-2-amine]", "IC50": 0.0445},
      {"compound": "Cc1cc(Nc2cc3cc(-c4cc(OC(F)(F)F)ccc4OCC(C)(C)C#N)ccn3n2)nc(C)n1", "note": "[Example 754, 3-[2-[2-[(2,6-dimethylpyrimidin-4-yl)amino]pyrazolo[1,5-a]pyridin-5-yl]-4-(trifluoromethoxy)phenoxy]-2,2-dimethyl-propanenitrile]", "IC50": 0.071},
      {"compound": "CCc1nc(C)cc(Nc2cc3cc(-c4cc(C)ncc4OCC(C)(C)O)ccn3n2)n1", "note": "[Example 202, 1-[[4-[2-[(2-ethyl-6-methyl-pyrimidin-4-yl)amino]pyrazolo[1,5-a]pyridin-5-yl]-6-methyl-3-pyridyl]oxy]-2-methyl-propan-2-ol]", "IC50": 0.00758},
      {"compound": "Cc1cc(-c2ccn3nc(NC(=O)C4CC4)cc3c2)c(OC[C@]23CN[C@H](CO2)C3)cn1", "note": "[Example 253, N-[5-[2-methyl-5-[[(1S,4S)-5-oxa-2-azabicyclo[2.2.1]heptan-4-yl]methoxy]-4-pyridyl]pyrazolo[1,5-a]pyridin-2-yl]cyclopropanecarboxamide]", "IC50": 0.00479},
      {"compound": "Cc1cc(-c2ccn3nc(Nc4cc(C)nc(C)n4)cc3c2)c(OC[C@@H]2CCS(=O)(=O)C2)cn1", "note": "(single isomer, unassigned) [Example 364, (*S)—N-(2,6-dimethylpyrimidin-4-yl)-5-[5-[(1,1-dioxothiolan-3-yl)methoxy]-2-methyl-4-pyridyl]pyrazolo[1,5-a]pyridin-2-amine]", "IC50": 0.0441},
      {"compound": "Cc1cc(-c2ccn3nc(Nc4cc(C)nc(C)n4)cc3c2)c(OC[C@@H]2CCC3(CCCC3)O2)cn1", "note": "(single isomer, unassigned) [Example 230, (*S)—N-(2,6-dimethylpyrimidin-4-yl)-5-[2-methyl-5-(9-oxaspiro[4.4]nonan-8-ylmethoxy)-4-pyridyl]pyrazolo[1,5-a]pyridin-2-amine]", "IC50": 0.0377},
      {"compound": "Cc1cc(-c2ccn3nc(Nc4cc(C)nc(C)n4)cc3c2)c(O[C@H]2CCS(=O)(=O)N(C)C2)cn1", "note": "(single isomer, unassigned) [Example 355, (*S)—N-(2,6-dimethylpyrimidin-4-yl)-5-[2-methyl-5-(2-methyl-1,1-dioxo-thiazinan-4-yl)oxy-4-pyridyl]pyrazolo[1,5-a]pyridin-2-amine]", "IC50": 0.00681},
      {"compound": "CC(C)(C#N)COc1cnc(OC(F)F)cc1-c1ccn2nc(Nc3ccc(C(C)(C)O)nn3)cc2c1", "note": "[Example 712, 3-[[6-(difluoromethoxy)-4-[2-[[6-(1-hydroxy-1-methyl-ethyl)pyridazin-3-yl]amino]pyrazolo[1,5-a]pyridin-5-yl]-3-pyridyl]oxy]-2,2-dimethyl-propanenitrile]", "IC50": 0.00411},
      {"compound": "COc1cc(-c2ccn3nc(Nc4cc(C)nc(C)n4)cc3c2)c(OC[C@H]2OCC[C@@H]2O)cn1", "note": "[Example 498, (2R,3S)-2-[[4-[2-[(2,6-dimethylpyrimidin-4-yl)amino]pyrazolo[1,5-a]pyridin-5-yl]-6-methoxy-3-pyridyl]oxymethyl]tetrahydrofuran-3-ol]", "IC50": 0.0414},
      {"compound": "Cc1cc(Nc2cc3cc(-c4cc(OC(F)F)ncc4OCC4(C#N)CC4)ccn3n2)nc(C)n1", "note": "[Example 720, 1-[[6-(difluoromethoxy)-4-[2-[(2,6-dimethylpyrimidin-4-yl)amino]pyrazolo[1,5-a]pyridin-5-yl]-3-pyridyl]oxymethyl]cyclopropanecarbonitrile]", "IC50": 0.00954},
      {"compound": "Cc1cc(-c2ccn3nc(NC(=O)C4CC4)cc3c2)c(OC[C@](C)(O)C(F)(F)F)cn1", "note": "(single isomer, unassigned) [Example 190, (*S)—N-(5-(2-methyl-5-(3,3,3-trifluoro-2-hydroxy-2-methylpropoxy)pyridin-4-yl)pyrazolo[1,5-a]pyridin-2-yl)cyclopropanecarboxamide]", "IC50": 0.0255},
      {"compound": "COc1cc(Nc2cc3cc(-c4cc(C)ncc4O[C@H]4CC[C@H](O)CC4)ccn3n2)cc(OC)c1C(=O)NC(C)C", "note": "[Example 330, 4-[[5-[5-(4-hydroxycyclohexoxy)-2-methyl-4-pyridyl]pyrazolo[1,5-a]pyridin-2-yl]amino]-N-isopropyl-2,6-dimethoxy-benzamide]", "IC50": 0.028},
      {"compound": "Cc1cc(-c2ccn3nc(Nc4cc(C)nc(C)n4)cc3c2)c(O[C@H]2CCOC(C)(C)C2)cn1", "note": "(single isomer, unassigned) [Example 578, (*S)—N-(2,6-dimethylpyrimidin-4-yl)-5-[5-(2,2-dimethyltetrahydropyran-4-yl)oxy-2-methyl-4-pyridyl]pyrazolo[1,5-a]pyridin-2-amine]", "IC50": 0.0998},
      {"compound": "Cc1cc(Nc2cc3cc(-c4cc(OCC(F)F)ncc4OCC(C)(C)C#N)ccn3n2)nn(C2CC2)c1=O", "note": "[Example 730, 3-[[4-[2-[(1-cyclopropyl-5-methyl-6-oxo-pyridazin-3-yl)amino]pyrazolo[1,5-a]pyridin-5-yl]-6-(2,2-difluoroethoxy)-3-pyridyl]oxy]-2,2-dimethyl-propanenitrile]", "IC50": 0.0154},
      {"compound": "Cc1cc(Nc2cc3cc(-c4cc(OC(F)F)ncc4OC[C@@H]4CNCCO4)ccn3n2)nc(C)n1", "note": "[Example 502, 5-[2-(difluoromethoxy)-5-[[(2S)-morpholin-2-yl]methoxy]-4-pyridyl]-N-(2,6-dimethylpyrimidin-4-yl)pyrazolo[1,5-a]pyridin-2-amine]", "IC50": 0.00682}
    ]}
  ]
}
